Reference: US8026222B2, “Methods of use of glycomimetics with replacements for hexoses and n-acetyl hexosamines” (GlycoMimetics, Inc., priority 2007, dated 2011)

System: human umbilical vein endothelial cells (HUVECS)
Assay: neutrophil rolling on endothelial cell monolayers under flow conditions (rolling index)
Format: cell-based
Conditions: HUVEC monolayers incubated in glycated serum protein for 4 hours, perfused with human neutrophils (FIG. 18, FIG. 19)
Protocol: Monolayers of human umbilical vein endothelial cells (HUVECS) were incubated in glycated serum proteins (FIG. 18, glycated albumin, Gly-HSA or FIG. 19, glycated hemoglobin, Gly-Hb) for 4 hours. Monolayers were then inserted into a flow chamber and the chamber was perfused with human neutrophils (10^6 cell/ml) at a flow rate corresponding to a wall shear stress of 0.9 dynes/cm^2. Digital images were acquired and analyzed to determine the rolling index (RI) which is a measure of the degree of neutrophil rolling on the endothelial cell monolayer.

Question: “glycated hemoglobin: glycated serum protein used to stimulate endothelial cells” was tested. Which “increase in neutrophil rolling (rolling index)” value did it give?
Answer: ~2.8 fold
